In US9155792B2, “RecA inhibitors with antibiotic activity, compositions and methods of use” (Trustees of Boston University, priority 2006, dated 2015):

How the values were obtained:
[1] = molecular target: T1, E. coli RecA protein (Escherichia coli, UniProt P0A7G6); test: RecA ATPase luciferase assay; format: biochemical; settings: compounds of FIGS. 2A and 2B
T1 construct: purchased New England Biolabs
Description: RecA is a DNA-dependent ATPase (i.e., it catalyzes the reaction adenosine triphosphate [ATP]→adenosine diphosphate [ADP]). An assay was developed for RecA ATPase activity based on detection of the amount of ATP remaining in a reaction mixture following incubation of RecA protein, DNA, and ATP. In the assay, E. coli RecA protein is incubated in reaction buffer with DNA, ATP, and any test compound or compounds for a measured amount of time. The quantity of ATP remaining after the RecA reaction is quantitated using a subsequent luciferase assay. The amount of ATP remaining can be compared to controls containing either a known inhibitor (full inhibition control) or no test compound (full activity control).
Kinase glo, Adenosine triphosphate, Adenosine 5′-O-(3-thiotriphosphate) plus and 384 well plates were obtained from Fisher, M13mp18 Single-stranded DNA, RecA protein, and T4 polynucleotide kinase reaction buffer (70 mM Tris-HCl pH7.5; 10 mM MgCl2; 5 mM DTT) were obtained from New England Biolabs.
Final reaction mixture contains: 0.5 μl of M13 single stranded DNA (250 μg/ml); 1.0 μl of 10×PHK buffer; 0.25 μl of RecA (2 mg/ml); 0.25 μl of 1 mM ATP; 0.25 μl of test compound in DMSO; and 12.0 μl of H2O.
Test compounds are incubated at room temperature in the presence of RecA protein and DNA prior to addition of ATP. This can be achieved by the preparation of two mixes, as indicated below. Desirably, both a no-DNA and a DNA/DMSO-only (i.e., no test compound) control were included.
The following steps are then performed: (1) Add 7.75 μl of mix 1 to the well of a 384 well plate; (2) Add 0.5 μl of the compound of interest; (3) Incubate at room temperature for 5 minutes; (4) Add 2.5 μl of the ATP mix. Incubate at room temperature for 30 minutes; (5) Add 12.5 μl of Promega Kinase glo plus; (6) Incubate at room temp for 10 minutes or more; and (7) Measure luminescence of the reaction.
Tested compounds were obtained from Boston University (1205 compounds from CMLD diversity library, available from Dr. Scott Schauss), IndoFine (66 compounds based on flavone structure), ChemdiV (48 compounds known to be ATPase inhibitors and 720 compounds structurally related to CB101 (described, for example, in U.S. Ser. No. 60/662,038), and Asinex. Five (5) tested compounds were bisflavones and 28 were predicted, based on structural modeling (see, for example, Example 20) to dock with Rec A. Many of the compounds are lipophilic, natural-product-like compounds. Others are flavones, bisflavones, flavonoids, coumarins, and/or heterocyclic compounds.
Percent inhibition is calculated according to the following equation:
[formula] A value of “−1” indicates higher than 50 μg/ml, therefore undetermined

[2] = tested on: S. aureus cells; test: Mutation/resistance assay (resistance to ciprofloxacin); format: cell-based
Description: This assay measures the rate at which mutant cells arise in the presence of an antibiotic agent. Cells are grown in the presence of antibiotic agent at a concentration above (generally well above, e.g., 4× or 8×) its MIC, and further in the presence or absence of a test agent (that may inhibit or enhance mutation).
Every 24 hours, an aliquot is removed from the culture and is diluted so that the antibiotic agent is no longer present at a concentration above its MIC (e.g., so that the antibiotic agent is present at 0.5×MIC or less). These aliquoted samples are then assayed to determine whether they can grow in the presence of the antibiotic agent. Specifically, when growth is observed in the presence of antibiotic agent at a concentration that is 4×MIC, then resistance is said to have developed. Test compounds can therefore be assayed to assess whether or not they can reduce the incidence of resistance (e.g., by inhibiting mutation).
These aliquoted samples were then assayed to determine whether they can grow in the presence of ciprofloxacin. […]

[3] = tested on: S. aureus strain S3 (ISP 794); test: Cell-based survival assay, S. aureus strain S3 (RecA+); settings: 1 μg/ml ciprofloxacin + 25 μg/ml hinokiflavone, 16 hour time point

T1 sequence (P0A7G6 2-353): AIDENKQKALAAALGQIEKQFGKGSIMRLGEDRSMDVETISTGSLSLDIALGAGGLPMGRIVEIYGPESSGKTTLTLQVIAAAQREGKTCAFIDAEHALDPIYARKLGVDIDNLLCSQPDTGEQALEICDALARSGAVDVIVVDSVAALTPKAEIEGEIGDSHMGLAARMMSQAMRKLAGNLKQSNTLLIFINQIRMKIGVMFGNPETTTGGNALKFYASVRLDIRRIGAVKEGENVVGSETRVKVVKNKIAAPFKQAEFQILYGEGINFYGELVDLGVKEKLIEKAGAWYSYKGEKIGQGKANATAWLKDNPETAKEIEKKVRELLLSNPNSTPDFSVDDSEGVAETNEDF

Structure (SMILES): O=c1c(O)c(-c2ccc(O)cc2)oc2cc(O)ccc12 [3,7,4′-trihydroxyflavone]
- activity in RecA ATPase screen [1]: particularly active

Structure (SMILES): O=c1cc(-c2ccc(O)cc2)oc2cc(O)c(O)c(O)c12 [6-hydroxy-apigenin]
- activity in RecA ATPase screen [1]: particularly active

Structure (SMILES): O=c1cc(-c2ccc(O)cc2)oc2cc(O[C@@H]3O[C@H](CO)[C@@H](O)[C@H](O)[C@H]3O)cc(O)c12 [apigenin-7-O-glucoside]
- activity in RecA ATPase screen [1]: particularly active

Structure (SMILES): O=c1cc(-c2ccc(O)cc2)oc2cc(O)cc(O)c12 [apigenin]
- activity in RecA ATPase screen [1]: particularly active

Structure (SMILES): O=C(O)c1cn(C2CC2)c2cc(N3CCNCC3)c(F)cc2c1=O [ciprofloxacin, reference compound]
- Number of Wells in which Growth Observed in Presence of Ciprofloxacin at 4 × MIC ([2]; culture grown 0 days in 4×MIC ciprofloxacin, −Hinokiflavone): 0
- Number of Wells in which Growth Observed in Presence of Ciprofloxacin at 4 × MIC ([2]; culture grown 1 day in 4×MIC ciprofloxacin, −Hinokiflavone): 1
- Number of Wells in which Growth Observed in Presence of Ciprofloxacin at 4 × MIC ([2]; culture grown 5 days in 4×MIC ciprofloxacin, −Hinokiflavone): 2
- Number of Wells in which Growth Observed in Presence of Ciprofloxacin at 4 × MIC ([2]; culture grown 6 days in 4×MIC ciprofloxacin, −Hinokiflavone): 2
- Number of Wells in which Growth Observed in Presence of Ciprofloxacin at 4 × MIC ([2]; culture grown 7 days in 4×MIC ciprofloxacin, −Hinokiflavone): 3
- Number of Wells in which Growth Observed in Presence of Ciprofloxacin at 4 × MIC ([2]; culture grown 10 days in 4×MIC ciprofloxacin, −Hinokiflavone): 11

Structure (SMILES): O=c1c(O)c(-c2ccc(O)c(O)c2)oc2cc(O)ccc12 [fisetin]
- activity in RecA ATPase screen [1]: particularly active

Structure (SMILES): O=c1cc(-c2ccc(Oc3c(O)cc4oc(-c5ccc(O)cc5)cc(=O)c4c3O)cc2)oc2cc(O)cc(O)c12 [hinokiflavone]
- Number of Wells in which Growth Observed in Presence of Ciprofloxacin at 4 × MIC ([2]; culture grown 0 days in 4×MIC ciprofloxacin, +Hinokiflavone (25 μg/ml)): 0
- Number of Wells in which Growth Observed in Presence of Ciprofloxacin at 4 × MIC ([2]; culture grown 1 day in 4×MIC ciprofloxacin, +Hinokiflavone (25 μg/ml)): 0
- Number of Wells in which Growth Observed in Presence of Ciprofloxacin at 4 × MIC ([2]; culture grown 5 days in 4×MIC ciprofloxacin, +Hinokiflavone (25 μg/ml)): 0
- Number of Wells in which Growth Observed in Presence of Ciprofloxacin at 4 × MIC ([2]; culture grown 6 days in 4×MIC ciprofloxacin, +Hinokiflavone (25 μg/ml)): 0
- Number of Wells in which Growth Observed in Presence of Ciprofloxacin at 4 × MIC ([2]; culture grown 7 days in 4×MIC ciprofloxacin, +Hinokiflavone (25 μg/ml)): 3
- Number of Wells in which Growth Observed in Presence of Ciprofloxacin at 4 × MIC ([2]; culture grown 10 days in 4×MIC ciprofloxacin, +Hinokiflavone (25 μg/ml)): 4
- fewer CFUs in presence of hinokiflavone as compared with its absence [3]: approximately 100 fold

Structure (SMILES): COc1cc(-c2oc3cc(O)cc(O)c3c(=O)c2O)ccc1O [isorhamnetin]
- activity in RecA ATPase screen [1]: particularly active

Structure (SMILES): O=c1c(O)c(-c2ccc(O)cc2)oc2cc(O)cc(O)c12 [kaempferol]
- activity in RecA ATPase screen [1]: particularly active

Structure (SMILES): O=C(c1ccc(O)c(O)c1)c1c(O)cc(O)cc1O [maclurin]
- activity in RecA ATPase screen [1]: particularly active

Structure (SMILES): O=c1c(O)c(-c2ccc(O)cc2O)oc2cc(O)cc(O)c12 [morin]
- activity in RecA ATPase screen [1]: particularly active

Structure (SMILES): O=c1c(O)c(-c2ccc(O)c(O)c2)oc2cc(O)c(O)c(O)c12 [quercetagetin]
- activity in RecA ATPase screen [1]: particularly active

Structure (SMILES): O.O.O=c1c(O)c(-c2ccc(O)c(O)c2)oc2cc(O)cc(O)c12 [quercetin dihydrate]
- activity in RecA ATPase screen [1]: particularly active

Structure (SMILES): O=c1c(O)cc([C@H]2Oc3cc(O)cc(O)c3C[C@H]2O)cc2c([C@H]3Oc4cc(O)cc(O)c4C[C@H]3O)cc(O)c(O)c12 [theaflavin]
- activity in RecA ATPase screen [1]: particularly active
